Results on 16 compounds are retold here after patent US8871777B2, “Phenylpyrimidone compounds, the pharmaceutical compositions, preparation methods and uses thereof” (Topharman Shanghai Co., Ltd., priority 2008, dated 2014).

Test [1] deals with T1, human blood platelet PDE5 (Homo sapiens, UniProt O76074).
T1 construct: obtained by suitably treating various tissues and separating the enzyme with FPLC; from tissue; host or cells: human blood platelets
The test can be described thus: PDE5 enzyme inhibition activity test (scintillation proximity). The test is classed as biochemical. How it is done:
(§1) More specifically, PDE5 and PDE3 were obtained from human blood platelet, and PDE6 was separated from bovine retina. Upon enzyme was separated out, the enzyme inhibition activity test would be carried out immediately. The said enzyme inhibition activity test was performed by directly detecting the scintillation proximity of AMP/GMP using TRKQ7100 and TRKQ7090 kits, which was generally as follows. In the presence of different concentrations of inhibitor and a small amount of substrate, 10 μl of buffer (50 mM Tris/HCl PH 7.5, 8.3 mM MgCl2, 1.7 mM EGTA) was added, and then water was added to a final volume of 100 μl. The reaction was initiated with a fixed amount of enzyme, incubated at 30° C. for 30 min, and then quenched with 50 μl of yttrium silicate beads comprising zinc sulphate. After shaken for 20 min, the reaction mixture was put in dark and settled for 30 min, and then readed on a BECKMAN LS6500 MULTI-PURPOSE SCINTILLATION COUNTER.

The next test deals with T2, PDE6 in bovine retina (Bos taurus, UniProt P11541+P23439).
T2 construct: obtained by suitably treating various tissues and separating the enzyme with FPLC; from tissue; host or cells: bovine retina
T2 sequence (P11541 2-856 limits assumed): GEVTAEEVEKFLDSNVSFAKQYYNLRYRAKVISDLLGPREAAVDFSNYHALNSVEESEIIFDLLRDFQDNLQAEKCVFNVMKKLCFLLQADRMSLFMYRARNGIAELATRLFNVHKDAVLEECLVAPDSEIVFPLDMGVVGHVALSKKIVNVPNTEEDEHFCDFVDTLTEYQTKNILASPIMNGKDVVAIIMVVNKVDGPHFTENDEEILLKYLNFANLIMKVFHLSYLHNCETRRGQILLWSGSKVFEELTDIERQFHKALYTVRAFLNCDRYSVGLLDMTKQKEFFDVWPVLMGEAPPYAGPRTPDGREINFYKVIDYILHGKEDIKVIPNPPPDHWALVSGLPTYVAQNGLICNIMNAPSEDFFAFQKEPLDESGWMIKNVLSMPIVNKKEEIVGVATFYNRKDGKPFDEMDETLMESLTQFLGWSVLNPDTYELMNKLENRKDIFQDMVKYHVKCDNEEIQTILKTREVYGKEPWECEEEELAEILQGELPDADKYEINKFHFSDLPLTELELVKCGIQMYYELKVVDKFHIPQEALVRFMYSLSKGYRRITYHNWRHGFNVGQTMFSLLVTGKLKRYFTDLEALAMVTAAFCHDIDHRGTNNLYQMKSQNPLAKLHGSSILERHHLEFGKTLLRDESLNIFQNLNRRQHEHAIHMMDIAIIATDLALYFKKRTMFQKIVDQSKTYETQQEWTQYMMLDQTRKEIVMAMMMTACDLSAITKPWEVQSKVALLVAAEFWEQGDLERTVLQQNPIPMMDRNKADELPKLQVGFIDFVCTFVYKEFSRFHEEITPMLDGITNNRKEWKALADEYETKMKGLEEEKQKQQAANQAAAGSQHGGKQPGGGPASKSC
T2 sequence (P23439 2-850 limits assumed): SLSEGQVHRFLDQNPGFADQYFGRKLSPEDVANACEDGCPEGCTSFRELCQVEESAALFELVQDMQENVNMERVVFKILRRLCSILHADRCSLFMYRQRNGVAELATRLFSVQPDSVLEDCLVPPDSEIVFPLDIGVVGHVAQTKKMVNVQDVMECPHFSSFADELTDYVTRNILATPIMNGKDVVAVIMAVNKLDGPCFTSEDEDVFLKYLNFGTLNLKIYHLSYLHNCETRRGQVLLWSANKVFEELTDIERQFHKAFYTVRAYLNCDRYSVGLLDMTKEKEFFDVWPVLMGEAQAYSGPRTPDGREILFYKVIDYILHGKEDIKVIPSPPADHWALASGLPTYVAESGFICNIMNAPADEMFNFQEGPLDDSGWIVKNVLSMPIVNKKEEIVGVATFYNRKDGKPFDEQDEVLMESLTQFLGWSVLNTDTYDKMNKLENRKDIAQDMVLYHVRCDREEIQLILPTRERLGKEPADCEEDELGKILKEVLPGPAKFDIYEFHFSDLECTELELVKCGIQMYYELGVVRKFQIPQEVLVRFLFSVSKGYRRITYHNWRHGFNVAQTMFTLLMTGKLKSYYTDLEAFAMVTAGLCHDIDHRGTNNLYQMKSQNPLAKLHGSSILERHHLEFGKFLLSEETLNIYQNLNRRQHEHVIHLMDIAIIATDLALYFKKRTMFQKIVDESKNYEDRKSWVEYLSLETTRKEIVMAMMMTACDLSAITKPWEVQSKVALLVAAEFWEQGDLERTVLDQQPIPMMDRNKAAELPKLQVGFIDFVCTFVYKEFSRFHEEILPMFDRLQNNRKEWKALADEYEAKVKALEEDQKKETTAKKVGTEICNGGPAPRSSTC
Kind of test: PDE6 enzyme inhibition activity test (scintillation proximity). The following applies: for PDE6 IC50/PDE5 IC50: selectivity, ratio of IC50 PDE6/IC50 PDE5. The test is classed as biochemical. How it is done: as §1

The mark [2] stands for this setting: PDE6 separated from bovine retina, read-out: PDE6 IC50.

Structures are written as SMILES. Read-outs that look alike come from different tables or passages of the source.

The IC50 is the concentration needed to halve the response being measured. As for `CCCOc1ccc(C(=O)N2CCOCC2)cc1-c1nc(C(C)C)c(Br)c(=O)[nH]1` [Example 63, (Morpholin-1-yl)(3-(4-isopropyl-5-bromo-1,6-dihydro-6-oxopyrimidin-2-yl)-4-n-propoxy)benzophenone], the IC50 in test [1] (PDE5 table) amounted to 1.24 nM; in test [1] (as repeated in the PDE6 table), 1.24 nM; at PDE6 in bovine retina (setting [2]) it was 33.4 nM. In addition, on PDE6 in bovine retina, the “PDE6 IC50/PDE5 IC50” value is reported as 26.9.
`CCCOc1ccc(NC(N)=O)cc1-c1nc(CC)c(CC)c(=O)[nH]1` [Example 67, 1-(3-(4,5-Diethyl-1,6-dihydro-6-oxopyrimidin-2-yl)-4-n-propoxyphenyl)urea]: the IC50 in test [1] (PDE5 table) was found to be 1.61 nM; in test [1] (as repeated in the PDE6 table), 1.61 nM; on PDE6 in bovine retina (setting [2]), 26.9 nM. The “PDE6 IC50/PDE5 IC50” value on PDE6 in bovine retina came out at 16.7.
Take `CCCOc1ccc(NC(=O)NCC)cc1-c1nc(CC)c(CC)c(=O)[nH]1` [Example 68, 1-(3-(4,5-Diethyl-1,6-dihydro-6-oxopyrimidin-2-yl)-4-n-propoxyphenyl)-3-ethylurea]: the half-inhibitory concentration (IC50) in test [1] (PDE5 table) worked out at 0.53 nM; in test [1] (as repeated in the PDE6 table) it was 0.53 nM; at PDE6 in bovine retina (setting [2]), 16.4 nM. On PDE6 in bovine retina, the “PDE6 IC50/PDE5 IC50” value worked out at 31.0.
On to `CCCOc1ccc(C(=O)CN2CCOCC2)cc1-c1nc(CC)c(CC)c(=O)[nH]1` [Example 76, 5,6-diethyl-2-(5-(2-morpholinylacetyl)-2-n-propoxyphenyl)pyrimid-4(3H)-one], for which the IC50 was determined as 1.99 nM in test [1] (PDE5 table), 1.99 nM in test [1] (as repeated in the PDE6 table) and 25.2 nM at PDE6 in bovine retina (setting [2]). Further, the “PDE6 IC50/PDE5 IC50” value at PDE6 in bovine retina turned out to be 12.7.
Consider `CCCOc1ccc(C(=O)NCC(=O)OCC)cc1-c1nc(CC)c(CC)c(=O)[nH]1` [Example 89, Ethyl 2-(3-(4,5-diethyl-1,6-dihydro-6-oxopyrimidin-2-yl)-4-n-propoxybenzamido)acetate], for which the IC50 in test [1] (PDE5 table) was determined as 1.98 nM; in test [1] (as repeated in the PDE6 table) it was 1.98 nM; on PDE6 in bovine retina (setting [2]), 11.7 nM. Besides, at PDE6 in bovine retina, the “PDE6 IC50/PDE5 IC50” value was 5.88.
For `CCCOc1ccc(NC(=O)C(F)(F)F)cc1-c1nc(CC)c(CC)c(=O)[nH]1` [Example 98, N-(3-(4,5-diethyl-1,6-dihydro-6-oxopyrimidin-2-yl)-4-n-propoxyphenyl)-2,2,2-trifluoroacetamide], the results for the IC50 (in test [1] (PDE5 table); in test [1] (as repeated in the PDE6 table); at PDE6 in bovine retina (setting [2])) were 2.77 nM, 2.77 nM and 10.4 nM, respectively. Further, the “PDE6 IC50/PDE5 IC50” value at PDE6 in bovine retina turned out to be 3.77.
Take `CCCOc1ccc(NC(=O)CC(=O)OCC)cc1-c1nc(CC)c(CC)c(=O)[nH]1` [Example 102, ethyl N-(3-(4,5-diethyl-1,6-dihydro-6-oxopyrimidin-2-yl)-4-n-propoxyphenyl)aminoformylacetate]: the IC50 in test [1] (PDE5 table) worked out at 4.61 nM; in test [1] (as repeated in the PDE6 table), 4.61 nM; at PDE6 in bovine retina (setting [2]) it was 24.6 nM. In addition, at PDE6 in bovine retina, the “PDE6 IC50/PDE5 IC50” value came out at 5.33.
Turning to `CCCOc1ccc(NC(=O)CCCNC(C)=O)cc1-c1nc(CC)c(CC)c(=O)[nH]1` [Example 107, 4-Acetamido-N-(3-(4,5-diethyl-1,6-dihydro-6-oxopyrimidin-2-yl)-4-n-propoxyphenyl)butyramide], the half-inhibitory concentration (IC50) in test [1] (PDE5 table) worked out at 0.92 nM; in test [1] (as repeated in the PDE6 table) it was 0.92 nM; at PDE6 in bovine retina (setting [2]) it was 6.42 nM. Besides, the “PDE6 IC50/PDE5 IC50” value at PDE6 in bovine retina is reported as 22.64.
With `CCCOc1ccc(NC(=O)C2CCCN2C(C)=O)cc1-c1nc(CC)c(CC)c(=O)[nH]1` (stereo not shown) [Example 108, 1-acetyl-N-(3-(4,5-diethyl-1,6-dihydro-6-oxopyrimidin-2-yl)-4-n-propoxyphenyl)pyrrolidinyl-2-formamide], the IC50 in test [1] (PDE5 table) turned out to be 0.54 nM; in test [1] (as repeated in the PDE6 table) it was 0.54 nM; on PDE6 in bovine retina (setting [2]), 5.73 nM. In addition, the “PDE6 IC50/PDE5 IC50” value on PDE6 in bovine retina came out at 6.99.
Take `CCCOc1ccc(NC(=O)C(Cc2ccccc2)NC(C)=O)cc1-c1nc(CC)c(CC)c(=O)[nH]1` (stereo not shown) [Example 110, 2-acetamido-N-(3-(4,5-diethyl-1,6-dihydro-6-oxopyrimidin-2-yl)-4-n-propoxyphenyl)-3-phenylpropionamide]: the IC50 in test [1] (PDE5 table) came out at 2.85 nM; in test [1] (as repeated in the PDE6 table), 2.85 nM; on PDE6 in bovine retina (setting [2]), 22.2 nM. In addition, the “PDE6 IC50/PDE5 IC50” value at PDE6 in bovine retina amounted to 7.80.
`CCCOc1ccc(NC(=O)C(N)=O)cc1-c1nc(CC)c(CC)c(=O)[nH]1` [Example 114, N^1-(3-(4,5-diethyl-1,6-dihydro-6-oxopyrimidin-2-yl)-4-n-propoxyphenyl)oxalamide]: the values for the IC50 (in test [1] (PDE5 table); in test [1] (as repeated in the PDE6 table); on PDE6 in bovine retina (setting [2])) were 0.83 nM, 0.83 nM and 18.7 nM, respectively. At PDE6 in bovine retina, the “PDE6 IC50/PDE5 IC50” value turned out to be 10.53.
`CCCOc1ccc(S(=O)(=O)NC(C)C(=O)OCC)cc1-c1nc(CC)c(CC)c(=O)[nH]1` (stereo not shown) [Example 123, ethyl 2-(N-(3-(4,5-diethyl-1,6-dihydro-6-oxopyrimidin-2-yl)-4-n-propoxyphenyl)sulfonyl)aminopropionate]: the IC50 in test [1] (PDE5 table) came to 0.49 nM; in test [1] (as repeated in the PDE6 table), 0.49 nM; at PDE6 in bovine retina (setting [2]), 13.3 nM. In addition, on PDE6 in bovine retina, the “PDE6 IC50/PDE5 IC50” value was determined as 27.3.
With `CCCOc1ccc(S(=O)(=O)NCCCS(=O)(=O)O)cc1-c1nc(CC)c(CC)c(=O)[nH]1` [Example 124, 3-(N-(3-(4,5-diethyl-1,6-dihydro-6-oxopyrimidin-2-yl)-4-n-propoxyphenyl)sulfonyl)aminopropylsulfonic acid], the IC50 in test [1] (PDE5 table) came to 0.13 nM; in test [1] (as repeated in the PDE6 table), 0.13 nM; on PDE6 in bovine retina (setting [2]), 3.76 nM. For the same compound, at PDE6 in bovine retina, the “PDE6 IC50/PDE5 IC50” value is listed as 28.6.
On to `CCCOc1ccc(S(=O)(=O)NCCS(=O)(=O)O)cc1-c1nc(CC)c(CC)c(=O)[nH]1` [Example 125, 2-(N-(3-(4,5-diethyl-1,6-dihydro-6-oxopyrimidin-2-yl)-4-n-propoxyphenyl)sulfonyl)aminoethylsulfonic acid], for which the IC50 is 0.19 nM in test [1] (PDE5 table), 0.19 nM in test [1] (as repeated in the PDE6 table) and 2.71 nM at PDE6 in bovine retina. Moreover, the “PDE6 IC50/PDE5 IC50” value on PDE6 in bovine retina was 14.6.
Consider `CCCOc1ccc(S(=O)(=O)NC(CC(N)=O)C(=O)O)cc1-c1nc(CC)c(CC)c(=O)[nH]1` (stereo not shown) [Example 126, 2-(N-(3-(4,5-diethyl-1,6-dihydro-6-oxopyrimidin-2-yl)-4-n-propoxyphenyl)sulfonyl)amino-3-aminoformylpropionic acid], for which the half-inhibitory concentration (IC50) was found to be 1.79 nM in test [1] (PDE5 table), 1.79 nM in test [1] (as repeated in the PDE6 table) and 54.9 nM on PDE6 in bovine retina (setting [2]). Also, the “PDE6 IC50/PDE5 IC50” value on PDE6 in bovine retina came out at 30.7.
Regarding `CCCOc1ccc(S(=O)(=O)N2CCN(CCO)CC2)cc1-c1nc(CC)c(CC)c(=O)[nH]1` [Example 133, 5,6-diethyl-2-(2-n-propoxy-5-(4-hydroxyethyl-1-piperazinylsulfonyl)phenyl]pyrimid-4(3H)-one], the IC50 in test [1] (PDE5 table) is 1.13 nM; in test [1] (as repeated in the PDE6 table) it was 1.31 nM; at PDE6 in bovine retina (setting [2]), 20.9 nM. Further, on PDE6 in bovine retina, the “PDE6 IC50/PDE5 IC50” value worked out at 15.9.
